Like-named read-outs stand apart in the source and are kept apart here.
Biological target: T1, human T-bet (Homo sapiens, UniProt Q9UL17)
T1 construct: expressed in transfected cells; host or cells: engineered HEK cells (HEKT-bet)
T1 sequence (Q9UL17 1-535): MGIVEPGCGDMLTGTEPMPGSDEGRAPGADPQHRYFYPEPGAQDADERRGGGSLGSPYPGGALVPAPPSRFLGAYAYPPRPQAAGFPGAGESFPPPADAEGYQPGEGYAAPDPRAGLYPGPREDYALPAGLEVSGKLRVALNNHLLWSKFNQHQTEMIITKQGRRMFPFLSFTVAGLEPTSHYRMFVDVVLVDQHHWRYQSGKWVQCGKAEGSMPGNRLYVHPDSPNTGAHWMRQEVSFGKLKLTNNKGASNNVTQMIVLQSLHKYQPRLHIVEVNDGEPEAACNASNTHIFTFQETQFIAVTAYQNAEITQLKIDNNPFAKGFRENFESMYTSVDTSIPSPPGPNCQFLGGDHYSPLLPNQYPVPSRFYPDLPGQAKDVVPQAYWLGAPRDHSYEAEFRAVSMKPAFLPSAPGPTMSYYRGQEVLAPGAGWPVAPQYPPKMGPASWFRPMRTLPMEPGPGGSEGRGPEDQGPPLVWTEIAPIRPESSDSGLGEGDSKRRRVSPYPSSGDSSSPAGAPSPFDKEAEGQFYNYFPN
Assay: HEKT-bet-luc assay (T-bet dependent luciferase reporter in engineered HEK cells)
Format: cell-based
Settings: HEKT-bet cells, compound 24 hours, IC50 normalized to reference ER-213038, read-out: IC50
Method in brief: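 HEK cells expressing human T-bet and a T-box element–luciferase reporter were treated with compound for 24 h, then luciferase was read by luminescence. IC50 was scaled between uninhibited signal and maximal inhibition, then normalized to a same-plate reference compound multiplied by its established potency.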

Structure (SMILES) | IC50 (Table 4) [nM] | IC50 (Table 2) [nM]
COCCN1C(=O)N(Cc2cccc(-n3cccc3)c2)C(=O)C12CCN(Cc1ccccc1)CC2 [Example 256] | 469 | –
COCCN1C(=O)N(Cc2cccc(OC)c2)C(=O)C12CCN(Cc1ccc3c(c1)Cc1ccccc1-3)CC2 [Example 257] | 479 | –
COCCN1C(=O)N(Cc2cccc(OC)c2)C(=O)C12CCN(Cc1cccc(-c3ccoc3)c1)CC2 [Example 258] | 481 | –
COCCN1C(=O)N(Cc2cccc(OC)c2)C(=O)C12CCN(Cc1cccc(-c3cccc(OC)c3)c1)CC2 [Example 259] | 484 | –
CCN1C(=O)N(CCCOc2ccccc2)C(=O)C12CCN(Cc1cccc3ccccc13)CC2 [Example 260] | 486 | –
C#CCOc1ccc(CN2CCC3(CC2)C(=O)N(Cc2cccc(OC)c2)C(=O)N3CCOC)cc1OC [Example 261] | 490 | –
CCOc1ccccc1CN1CCC2(CC1)C(=O)N(Cc1cccc(OC)c1)C(=O)N2CCOC [Example 262] | 495 | –
COCCN1C(=O)N(Cc2ccc3ccccc3c2)C(=O)C12CCN(Cc1ccccc1)CC2 [Example 263] | 498 | –
C=Cc1cccc(CN2CCC3(CC2)C(=O)N(Cc2cccc(OC)c2)C(=O)N3CCOC)c1 [Example 264] | 500 | –
COc1cccc(CN2C(=O)N(CC=C(C)C)C3(CCN(Cc4cccc5ccccc45)CC3)C2=O)c1 [Example 265] | 501 | –
CCN1C(=O)N(Cc2cccc(OC)c2)C(=O)C12CCN(Cc1cccc(C)c1)CC2 [Example 266] | 510 | –
COCCN1C(=O)N(Cc2cccc(OC)c2)C(=O)C12CCN(Cc1cccc3cc[nH]c13)CC2 [Example 267] | 510 | –
COCCN1C(=O)N(Cc2cccc(OC)c2)C(=O)C12CCN(Cc1c(F)cccc1OC)CC2 [Example 268] | 511 | –
COCCN1C(=O)N(Cc2cccc(OC)c2)C(=O)C12CCN(Cc1cc(OC)ccc1OC)CC2 [Example 269] | 513 | –
COCCN1C(=O)N(Cc2cccc(OC)c2)C(=O)C12CCN(Cc1cc(OC)c(Cl)cc1F)CC2 [Example 270] | 518 | –
CCOc1ccc(OCC)c(CN2CCC3(CC2)C(=O)N(Cc2cccc(OC)c2)C(=O)N3CCOC)c1 [Example 271] | 522 | –
CCN1C(=O)N(Cc2ccc3ccccc3c2)C(=O)C12CCN(Cc1cccc(C)c1)CC2 [Example 272] | 525 | –
CCCOc1ccc(CN2CCC3(CC2)C(=O)N(Cc2cccc(OC)c2)C(=O)N3CCOC)cc1OC [Example 273] | 528 | –
COCCN1C(=O)N(Cc2cccc(OC)c2)C(=O)C12CCN(Cc1cccc(N(C)C)c1)CC2 [Example 274] | 528 | –
COCCN1C(=O)N(Cc2cccc(OC)c2)C(=O)C12CCN(Cc1c(Cl)ccc(C)c1F)CC2 [Example 275] | 532 | –
COCCN1C(=O)N(Cc2cccc(OC)c2)C(=O)C12CCN(Cc1cccc(N(C)c3ccccc3)c1)CC2 [Example 276] | 538 | –
CCN1C(=O)N(CCCOc2ccccc2)C(=O)C12CCN(Cc1cccc(OC)c1)CC2 [Example 277] | 540 | –
COCCN1C(=O)N(Cc2cccc(OC)c2)C(=O)C12CCN(Cc1ccc(F)c(OC)c1)CC2 [Example 278] | 542 | –
CCN1C(=O)N(Cc2cccc(OC)c2)C(=O)C12CCN(Cc1cccc(OC)c1)CC2 [Example 279] | 546 | –

Structure (SMILES) | IC50 (Table 4) [nM] | IC50 (Table 2) [nM]
CCN1C(=O)N(CCCc2ccccc2)C(=O)C12CCN(Cc1cccc3ccccc13)CC2 [Example 280] | 546 | –
COc1cc(CN2CCC3(CC2)C(=O)N(Cc2cc(OC)cc(OC)c2)C(=O)N3Cc2ccc3c(c2)nnn3C)cc(OC)c1 [Example 281] | 548 | –
CCN1C(=O)N(CCCc2ccccc2)C(=O)C12CCN(Cc1cccc(OC)c1)CC2 [Example 282] | 549 | –
COCCN1C(=O)N(Cc2cccc(OC)c2)C(=O)C12CCN(Cc1ccc(-c3ccccc3)cc1)CC2 [Example 283] | 550 | –
COCCN1C(=O)N(CCCc2ccccc2)C(=O)C12CCN(Cc1ccc3ccccc3c1)CC2 [Example 284] | 551 | –
COc1cccc(CN2C(=O)N(CCCO)C3(CCN(Cc4cc(OC)cc(OC)c4)CC3)C2=O)c1 [Example 285] | 553 | –
CCN1C(=O)N(Cc2ccc3ccccc3c2)C(=O)C12CCN(Cc1cccc3ccccc13)CC2 [Example 286] | 560 | –
CCN1C(=O)N(CCc2cc(OC)cc(OC)c2)C(=O)C12CCN(Cc1cc(OC)cc(OC)c1)CC2 [Example 287] | 561 | –
COc1cc(CN2CCC3(CC2)C(=O)N(Cc2cc(OC)cc(OC)c2)C(=O)N3Cc2ccc(-n3cccn3)cc2)cc(OC)c1 [Example 288] | 567 | –
COCCN1C(=O)N(Cc2cccc(OC)c2)C(=O)C12CCN(Cc1c(F)ccc(C)c1Cl)CC2 [Example 289] | 567 | –
COCCN1C(=O)N(Cc2cccc(OC)c2)C(=O)C12CCN(Cc1cccc3c1OCCO3)CC2 [Example 290] | 568 | –
COCCN1C(=O)N(CCCc2ccccc2OC)C(=O)C12CCN(Cc1ccccc1)CC2 [Example 291] | 572 | –
COCN1C(=O)N(Cc2cc(OC)cc(OC)c2)C(=O)C12CCN(Cc1cccc(OC)c1)CC2 [Example 292] | 576 | –
COc1cccc(CN2C(=O)N(Cc3ccccc3)C3(CCN(Cc4cc(OC)cc(OC)c4)CC3)C2=O)c1 [Example 293] | 579 | –
O=C1N(/C=C/Cc2ccccc2)C(=O)C2(CCN(Cc3cccc4ccccc34)CC2)N1CCO [Example 294] | 579 | –
COCCN1C(=O)N(Cc2cccc(OC)c2)C(=O)C12CCN(Cc1cccc3c4ccccc4n(C)c13)CC2 [Example 295] | 580 | –
COCN1C(=O)N(/C=C/Cc2ccccc2)C(=O)C12CCN(Cc1cc(OC)cc(OC)c1)CC2 [Example 296] | 586 | –
COc1cccc(CN2C(=O)N(Cc3cccc(OC)c3)C3(CCN(Cc4ccccc4)CC3)C2=O)c1 [Example 297] | 586 | –
CNc1cccc(CN2CCC3(CC2)C(=O)N(Cc2cccc(OC)c2)C(=O)N3CCOC)c1 [Example 298] | 589 | –
COc1cccc(CN2C(=O)N(Cc3cccc(OC)c3)C3(CCN(Cc4cccc5ccccc45)CC3)C2=O)c1 [Example 299] | 596 | –
COCCN1C(=O)N(CCCc2ccccc2)C(=O)C12CCN(Cc1cccc(OC)c1)CC2 [Example 300] | 598 | –
COCCN1C(=O)N(Cc2cccc(OC)c2)C(=O)C12CCN(Cc1cccc(OC)c1F)CC2 [Example 301] | 599 | –
COc1cc(CN2CCC3(CC2)C(=O)N(C/C=C/c2ccccc2)C(=O)N3Cc2ccc(-n3cccn3)cc2)cc(OC)c1 [compound 41] | – | 45
COc1cc(CN2CCC3(CC2)C(=O)N(C/C=C/c2ccccc2)C(=O)N3CCO)cc(OC)c1 [compound 45] | – | 62

Source: patent US7666875B2, “Hydantoin compounds” (Eisai R&D Management Co., Ltd., priority 2005, dated 2010)
